# Measurements published in ChEMBL document CHEMBL5131496, “Adiponectin-Secretion-Promoting Cyclic Peptide-Polyketide Hybrids from a Halophyte-Associated Fungus, Colletotrichum gloeosporioides JS0417” (J Nat Prod, 2022).
# Active and inactive are the calls of the source. The rule behind the calls is not given here.
# What was measured:
# [1] = test system: HaCaT; test: Antiinflammatory activity against human HaCaT cells assessed as inhibition of UVB irradiation-induced PGE2 production measured after 2 hrs by ELISA; type: functional, cell-based; conditions: light or radiation study
# [2] = test system: Mesenchymal stem cells; test: Induction of adiponectin secretion in human differentiated BMMSC cells measured at 5 day in the presence of IDX induction medium by ELISA; type: functional, cell-based; conditions: for EC50: 120 h
# [3] = test system: Mesenchymal stem cells; test: Induction of adiponectin secretion in human differentiated BMMSC cells assessed as increase in lipid droplet accumulation at 300 uM in the presence of IDX induction medium by Oil red O staining based inverted phase contrast microscope analysis; type: functional, cell-based
# [4] = test system: Mesenchymal stem cells; test: Induction of adiponectin secretion in human differentiated BMMSC cells assessed as increase in size of lipid droplet at 30 uM in the presence of IDX induction medium by Oil red O staining based inverted phase contrast microscope analysis; type: functional, cell-based
# [5] = test system: Mesenchymal stem cells; test: Induction of adiponectin secretion in human differentiated BMMSC cells assessed as increase in number of lipid droplet at 30 uM in the presence of IDX induction medium by Oil red O staining based inverted phase contrast microscope analysis; type: functional, cell-based
# [6] = test system: Mesenchymal stem cells; test: Induction of adiponectin secretion in human differentiated BMMSC cells at 30 uM in the presence of IDX induction medium and measured on 5 day by ELISA relative to control; type: functional
# [7] = test system: HaCaT; test: Antiinflammatory activity against human HaCaT cells assessed as inhibition of UVB irradiation-induced PGE2 production at 10 uM measured after 2 hrs by ELISA; type: functional, cell-based
Compound,EC50 [2],IC50 [1],Activity [6],other results
Oc1ccc(/C=C/c2cc(O)cc(O)c2)cc1 [RESVERATROL],,18.3 µM,,
CC[C@H](C)[C@H]1C(=O)O[C@H]([C@@H](C)CCCC[C@@H](C)O)C[C@@H](O)[C@@H](C)C(=O)N[C@H](Cc2ccccc2)C(=O)N1C,22.7 µM,,123%,Activity [4]: Active; Activity [5]: Active
OCCc1c[nH]c2ccccc12 [TRYPTOPHOL],,6.55 µM,,Activity ([2]; DDE = dose-dependent effect): Dde; Activity [3]: Active; Activity [7]: Active
CCC(C)/C=C/CC(C)/C=C/C(=O)O[C@@H]1[C@@H](O)[C@H](c2c(C)cc(O)cc2O)O[C@H](CO)[C@H]1O (stereo partly drawn),,,78%,

# Now from value to compound, other results behind:
EC50 [2],Compound,IC50 [1],Activity [6],other results
> 300 µM,CC(=O)Oc1ccccc1C(=O)O [ASPIRIN],21.3 µM,,Activity [3]: Active
29.4 µM,CC(C)C[C@H]1NC(=O)[C@H](C)[C@H](O)C[C@@H]([C@@H](C)CCCC[C@@H](C)O)OC(=O)[C@H](CC(C)C)N(C)C1=O,,116%,Activity [4]: Active; Activity [5]: Active
2.8 µM,COc1ccc(Cl)cc1C(=O)NCCc1ccc(S(=O)(=O)NC(=O)NC2CCCCC2)cc1 [GLYBURIDE],,,
